Experiment: Solubility test of compound in safe solvent
Assay type: physicochemical
Conditions: 23° C., ultrasonic wave 30 minutes, visually evaluated; for CHN (dissolution amount): cyclohexanone; for PGME (dissolution amount): propylene glycol monomethyl ether
Protocol: The compound was precisely weighed in a test tube at 23° C.; and the target solvent was added to the compound so that a predetermined concentration of the liquid to be obtained is set; a ultrasonic wave was applied to the liquid in an ultrasonic washing machine for 30 minutes; and the state of the resulting liquid was visually evaluated.
The solubility of the compound in propylene glycol monomethyl ether (PGME) and cyclohexanone (CHN) was evaluated according to the following standard using the dissolution amount in each solvent. • A: 5.0% by weight≦dissolution amount • B: 3.0% by weight≦dissolution amount<5.0% by weight • C: dissolution amount<3.0% by weight • (2) Resolution, Shape, Roughness (LER), and Sensitivity of Resist Pattern
The dissolution amounts of compounds obtained in the above Synthesis Examples 1 and 2 and Synthesis Comparative Example 1 in propylene glycol monomethyl ether (PGME) and cyclohexanone (CHN) were evaluated using the above evaluation method and standard.

Row | Compound | CHN (dissolution amount) | PGME (dissolution amount)
1 | Oc1cc(O)c2cc1C(c1ccc(C3CCCCC3)cc1)c1cc(c(O)cc1O)C(c1ccc(C3CCCCC3)cc1)c1cc(c(O)cc1O)C(c1ccc(C3CCCCC3)cc1)c1cc(c(O)cc1O)C2c1ccc(C2CCCCC2)cc1 (stereo not drawn) [CR-1A, reference compound] | C (dissolution amount<3.0% by weight) | B (3.0% by weight≦dissolution amount<5.0% by weight)
2 | Oc1cc(O)c2cc1C(c1ccc(I)cc1)c1cc(c(O)cc1O)C(c1ccc(I)cc1)c1cc(c(O)cc1O)C(c1ccc(I)cc1)c1cc(c(O)cc1O)C2c1ccc(I)cc1 (stereo not drawn) [CR-1] | A (5.0% by weight≦dissolution amount) | A (5.0% by weight≦dissolution amount)
3 | Oc1cc(O)c2cc1C(c1ccc(CI)cc1)c1cc(c(O)cc1O)C(c1ccc(CI)cc1)c1cc(c(O)cc1O)C(c1ccc(CI)cc1)c1cc(c(O)cc1O)C2c1ccc(CI)cc1 (stereo not drawn) [CR-2] | A (5.0% by weight≦dissolution amount) | A (5.0% by weight≦dissolution amount)

Reference: US9122153B2, “Cyclic compound, method for producing same, composition, and method for forming resist pattern” (MITSUBISHI GAS CHEMICAL COMPANY, INC., priority 2011, dated 2015)
